Series [1] is described as follows: in vitro. To be noted: rat, microsomes.
Series [2] deals with Histone deacetylase 2 (Homo sapiens, UniProt Q92769). In words: Inhibition of HDAC2 (unknown origin) incubated for 30 mins by ALIS assay.
For series [3] the following is noted: human, microsomes.
Description: Metabolic stability in human liver microsomes

Where “and” joins values, the source holds several entries; their conditions need not be identical. Identical values can stand only once.

As a reminder, the microsomal CLint is the capacity of the preparation to metabolise the compound, expressed as a volume cleared per time. Lower therefore signals slow turnover. As usually defined, the IC50 is the concentration needed to halve the response being measured.

Sequence of Histone deacetylase 2 (Q92769 whole entry): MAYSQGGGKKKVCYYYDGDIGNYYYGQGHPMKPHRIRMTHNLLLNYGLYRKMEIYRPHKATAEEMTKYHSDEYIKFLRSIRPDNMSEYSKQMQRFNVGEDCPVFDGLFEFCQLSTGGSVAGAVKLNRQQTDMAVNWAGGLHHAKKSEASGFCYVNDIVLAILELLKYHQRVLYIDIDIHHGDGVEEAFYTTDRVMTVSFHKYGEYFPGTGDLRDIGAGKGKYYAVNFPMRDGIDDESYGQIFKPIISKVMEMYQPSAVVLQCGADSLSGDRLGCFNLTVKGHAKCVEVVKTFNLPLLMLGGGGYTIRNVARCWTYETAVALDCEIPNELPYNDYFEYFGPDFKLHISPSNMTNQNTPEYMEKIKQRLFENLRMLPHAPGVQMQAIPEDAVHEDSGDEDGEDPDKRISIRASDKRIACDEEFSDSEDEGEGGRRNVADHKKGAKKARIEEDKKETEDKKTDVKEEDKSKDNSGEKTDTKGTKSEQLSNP

Take `CCCC[C@H](NC(=O)[C@H](CN)c1c[nH]c2ccc(OC)cc12)c1nc(-c2ccc(-c3ccn(C)n3)cc2)c[nH]1`: the microsomal CLint at 0.75 h, 0.3 µM in series [1] worked out at 83.4 µL/min/mg.
Still for that read-out and setting: the figure for `O=C(NCCCC[C@H](NC(=O)C1CC12CCNCC2)c1ncc(-c2ccc3ccccc3c2)[nH]1)c1c(O)cccc1F` (some centres not stated) is 70.1 µL/min/mg.
The molecule `CC(=O)N1CC2(CC2C(=O)N[C@@H](CCCCNC(=O)c2c(O)cccc2F)c2ncc(-c3ccc4ccccc4c3)[nH]2)C1` (some centres not stated) returned an IC50 in series [2] of 64.5 nM. The molecule further displayed a microsomal CLint at 0.75 h, 0.3 µM in series [1] of 310 µL/min/mg.
Taken in the same sequence, the figures for `O=C(NCCCC[C@H](NC(=O)C1C2CNCC21)c1ncc(-c2ccc3ccccc3c2)[nH]1)c1c(O)cccc1F` (some centres not stated) were 37 nM and 57.5 µL/min/mg.
`O=C(NCCCC[C@H](NC(=O)C1C2CCNC21)c1ncc(-c2ccc3ccccc3c2)[nH]1)c1c(O)cccc1F` (some centres not stated) had a microsomal CLint at 0.75 h, 0.3 µM in series [1] of 754 µL/min/mg.
In the case of `CCC(=O)CCCCC[C@H](NC(=O)CC1CN2CCC1CC2)c1ncc(-c2ccccc2)[nH]1` (some centres not stated), 211 nM corresponded to half-maximal inhibition in series [2] (IC50). For the same molecule, the microsomal CLint at 0.75 h, 0.3 µM in series [1] is 91.8 µL/min/mg.
For `CCC(=O)CCCCC[C@H](NC(=O)C1C2COCC21)c1ncc(-c2ccccc2)[nH]1` (some centres not stated), the IC50 in series [2] worked out at 295 nM. The same molecule yielded a microsomal CLint at 0.75 h, 0.3 µM in series [1] of 75.7 µL/min/mg. Besides, in series [3], the Stability entry is reported as “Stable”.
In series [1], `CCCC[C@H](NC(=O)[C@H](CN)c1c[nH]c2ccc(OC)cc12)c1nc(-c2ccc(C3CC(C)(C)C3)cc2)c[nH]1` gave a microsomal CLint at 0.75 h, 0.3 µM of 110 µL/min/mg.
On to `CCC(=O)CCCCC[C@H](NC(=O)C1CC2CCN1CC2)c1ncc(-c2ccccc2)[nH]1` (some centres not stated), for which half-maximal inhibition in series [2] (IC50) was put at 96.8 nM. In series [1], this molecule had a microsomal CLint at 0.75 h, 0.3 µM of 144 µL/min/mg.
In series [1], `CCCC[C@H](NC(=O)[C@H](CN)c1c[nH]c2ccc(OC)cc12)c1nc(-c2ccc(OC)cc2)c[nH]1` registered a microsomal CLint at 0.75 h, 0.3 µM of 164 µL/min/mg. Also, in series [3], the Stability result is recorded as “Stable”.
`O=C(NCCCC[C@H](NC(=O)C1CC12CCCCC2)c1ncc(-c2ccc3ccccc3c2)[nH]1)c1c(O)cccc1F` (some centres not stated) returned an IC50 in series [2] of 432 nM. This molecule registered a microsomal CLint at 0.75 h, 0.3 µM in series [1] of 984 µL/min/mg.
Taken in the same sequence, the figures for `CCC(=O)CCCCC[C@H](NC(=O)C1CC12CN(C(C)=O)C2)c1ncc(-c2ccccc2)[nH]1` (some centres not stated) were 423 nM and 66.8 µL/min/mg.
`CCC(=O)CCCCC[C@H](NC(=O)C1CC12CCCC2)c1ncc(-c2ccccc2)[nH]1` (some centres not stated) had a microsomal CLint at 0.75 h, 0.3 µM in series [1] of 3510 µL/min/mg.
Consider `O=C(NCCCC[C@H](NC(=O)C1CC12CCCC2)c1ncc(-c2ccc3ccccc3c2)[nH]1)c1c(O)cccc1F` (some centres not stated), for which the IC50 in series [2] was 441 nM and 144 nM. This molecule also showed a microsomal CLint at 0.75 h, 0.3 µM in series [1] of 811 µL/min/mg.
Take `O=C(NCCCC[C@H](NC(=O)C1C2COCC21)c1ncc(-c2ccc3ccccc3c2)[nH]1)c1c(O)cccc1F` (some centres not stated): the IC50 in series [2] was 45.4 nM and 89.8 nM. This molecule also returned a microsomal CLint at 0.75 h, 0.3 µM in series [1] of 1150 µL/min/mg.
`CS(=O)(=O)N1CC2(CC2C(=O)N[C@@H](CCCCNC(=O)c2c(O)cccc2F)c2ncc(-c3ccc4ccccc4c3)[nH]2)C1` (some centres not stated): in series [2], the IC50 was 48 nM and 12 nM. In series [1], this molecule showed a microsomal CLint at 0.75 h, 0.3 µM of 693 µL/min/mg.
Consider `CCCC[C@H](NC(=O)[C@H](CN)c1c[nH]c2ccc(OC)cc12)c1nc(-c2ccc3c(C)noc3c2)c[nH]1`, for which the microsomal CLint at 0.75 h, 0.3 µM in series [1] was 192 µL/min/mg.
Regarding `CCC(=O)CCCCC[C@H](NC(=O)C1C2CNCC21)c1ncc(-c2ccccc2)[nH]1` (some centres not stated), the IC50 in series [2] worked out at 112 nM. Moreover, the microsomal CLint at 0.75 h, 0.3 µM in series [1] is 11.8 µL/min/mg.
On the same counts, the results for `CCCC[C@H](NC(=O)[C@H](CN)c1c[nH]c2ccc(OC)cc12)c1nc(-c2ccn(C)c(=O)c2)c[nH]1` are 428 nM and 9.9 µL/min/mg.
`O=C(NCCCC[C@H](NC(=O)C1CN2CCC1CC2)c1ncc(-c2ccc3ccccc3c2)[nH]1)c1c(O)cccc1F` (some centres not stated) yielded an IC50 in series [2] of 19.1 nM. In addition, the intrinsic metabolic clearance (microsomal CLint) at 0.75 h, 0.3 µM in series [1] was 1240 µL/min/mg.
Taken in the same sequence, the figures for `CCC(=O)CCCCC[C@H](NC(=O)C1CN2CCC1CC2)c1ncc(-c2ccccc2)[nH]1` (some centres not stated) were 146 nM and 134 µL/min/mg.
As to `O=C(NCCCC[C@H](NC(=O)C1CCCCC12CC2)c1ncc(-c2ccc3ccccc3c2)[nH]1)c1c(O)cccc1F` (some centres not stated), in series [1], the intrinsic clearance (microsomal CLint) at 0.75 h, 0.3 µM stood at 805 µL/min/mg.
As to `CCCC[C@H](NC(=O)[C@H](CN)c1c[nH]c2ccc(OC)cc12)c1nc(-c2ccc(C#N)cc2)c[nH]1`, the microsomal CLint at 0.75 h, 0.3 µM in series [1] worked out at 68.9 µL/min/mg. In addition, the Stability result in series [3] is “Stable”.
Turning to `CCCC[C@H](NC(=O)[C@H](CN)c1c[nH]c2ccc(OC)cc12)c1nc(-c2cc(C)cc(C)c2)c[nH]1`, the microsomal CLint at 0.75 h, 0.3 µM in series [1] came out at 51 µL/min/mg.
On the same count and under the same terms, the figure for `CCCC[C@H](NC(=O)[C@H](CN)c1c[nH]c2ccc(OC)cc12)c1nc(-c2cccc(C)c2)c[nH]1` is 195 µL/min/mg.

The values are drawn from ChEMBL document CHEMBL6092183, “Rapid Affinity and Microsomal Stability Ranking of Crude Mixture Libraries of Histone Deacetylase Inhibitors” (ACS Med Chem Lett, 2024).
